This is an account of results in publication PMC6264262, “Synthesis and Antimalarial Activity of Novel Dihydro-Artemisinin Derivatives” (Molecules, 2011).

One may read the pIC50 as the negative decadic logarithm of the IC50, by convention in mol/L.

pIC50: −log10 of the molar value.

The test addresses T1, P. falciparum falcipain-2 (Plasmodium falciparum, UniProt Q8I6U4).
T1 construct: Recombinant falcipain-2 (30 nM) was incubated for 30 min at room temperature
T1 sequence (Q8I6U4 244-484): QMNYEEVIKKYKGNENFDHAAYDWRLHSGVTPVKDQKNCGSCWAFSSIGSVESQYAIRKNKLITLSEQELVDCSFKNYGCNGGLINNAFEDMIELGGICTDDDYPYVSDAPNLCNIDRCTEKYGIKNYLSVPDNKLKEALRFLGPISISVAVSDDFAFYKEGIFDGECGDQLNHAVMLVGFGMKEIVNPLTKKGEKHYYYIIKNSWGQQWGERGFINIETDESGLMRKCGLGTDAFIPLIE
Kind of test: in vitro falcipain-2 inhibition assay (fluorogenic substrate Z-Leu-Arg-AMC). In kind it is biochemical. The note with it: recombinant falcipain-2 30 nM, pH 5.5, substrate Z-Leu-Arg-AMC 25 μM; for Inhibition rate: at 10 μM concentration level; for pIC50: 30 min preincubation, determined if inhibition rate larger than 20% at 10 μM. The method, then:
The in vitro P. falciparum falcipain-2 inhibition assay against was carried out according to a previously reported method by taking N-(L-3-trans-carboxyoxiran-2-carbonyl)-L-leucyl)-amido(4-guanido)butane (E-64) as a positive control and DMSO as a negative control. Falcipain-2 could hydrolyse the fluorogenic substrate benzyloxycarbonyl-Leu-Arg-7-amino-4-methylcoumarin (Z-Leu-Arg-AMC) to produce coumarin and its activity could be evaluated by monitoring the fluorescence of the coumarin.
Recombinant falcipain-2 (30 nM) was incubated for 30 min at room temperature in 100 mM NaOAc, pH 5.5, 10 mM dithiothreitol (DTT), with different concentrations of 10a-l and 12a-f. These solutions were prepared from stock in DMSO (maximum concentration of DMSO in the assay was 1%). After incubation, the substrate Z-Leu-Arg-AMC with the same buffer was added to a final concentration of 25 μM. The increase in fluorescence (excitation at 355 nm and emission at 460 nm) was monitored for 30 min at room temperature with an automated microplate spectrofluorimeter (Biotek, Synergy 2). IC50 values were determined from plots of percent activity over compound concentration using the GraphPad Prism software if inhibition rates were larger than 20% at 10 μM concentration level.

As for `Cc1c(Cl)cccc1NC(=O)NN=Cc1ccc(C(=O)O[C@@H]2OC3OC4(C)CCC5C(C)CCC(C2C)C35OO4)cc1` (stereo partly drawn) [Compound 12f, 4-[(10S)-Dihydroartemisinin-10-oxycarbonyl]benzaldehyde N^4-(3-chloro-2-methylphenyl)semicarbaz-one], the Inhibition rate is given as 74.67% and the pIC50 is 4.97.

Regarding `CC1CCC2C(C)[C@@H](Oc3ccc(C=NNC(=S)Nc4ccccc4F)cc3)OC3OC4(C)CCC1C32OO4` (stereo partly drawn) [Compound 10a, 4-[(10S)-Dihydroartemisinin-10-oxy]benzaldehyde N^4-(2-fluorophenyl)thiosemicarbazone], the Inhibition rate was found to be 72.48% and the pIC50 is 5.60.

With `CC1CCC2C(C)[C@@H](Oc3ccc(C=NNC(=S)Nc4ccc(F)cc4)cc3)OC3OC4(C)CCC1C32OO4` (stereo partly drawn) [Compound 10b, 4-[(10S)-Dihydroartemisinin-10-oxy]benzaldehyde N^4-(4-fluorophenyl)thiosemicarbazone], the Inhibition rate worked out at 59.76% and the pIC50 was 5.66.

On to `CC1CCC2C(C)[C@H](OC(=O)c3ccc(C=NNC(=O)Nc4ccccc4F)cc3)OC3OC4(C)CCC1C32OO4` (stereo partly drawn) [Compound 12a, 4-[(10S)-Dihydroartemisinin-10-oxycarbonyl]benzaldehyde N^4-(2-fluorophenyl)semicarbazone], for which the Inhibition rate came to 79.32% and the negative logarithm of the IC50 (pIC50) is 6.33.

Consider `CC1CCC2C(C)[C@@H](Oc3ccc(C=NNC(=O)Nc4ccc(F)cc4)cc3)OC3OC4(C)CCC1C32OO4` (stereo partly drawn) [Compound 10h, 4-[(10S)-Dihydroartemisinin-10-oxy]benzaldehyde N^4-(4-fluorophenyl)semicarbazone], for which the Inhibition rate was found to be 84.60% and the pIC50 was 5.99.

As for `CC1CCC2C(C)[C@@H](Oc3ccc(C=NNC(=O)Nc4ccccc4F)cc3)OC3OC4(C)CCC1C32OO4` (stereo partly drawn) [Compound 10g, 4-[(10S)-Dihydroartemisinin-10-oxy]benzaldehyde N^4-(2-fluorophenyl)semicarbazone], the Inhibition rate is 76.74% and the pIC50 was 5.65.

On to `CC(C)C[C@H](NC(=O)[C@H]1O[C@@H]1C(=O)O)C(=O)NCCCCN=C(N)N` (relative stereo) [Compound E-64, reference compound], for which the Inhibition rate amounted to 100.0% and the pIC50 is 7.71.

With `Cc1ccc(C)c(NC(=O)NN=Cc2ccc(C(=O)O[C@@H]3OC4OC5(C)CCC6C(C)CCC(C3C)C46OO5)cc2)c1` (stereo partly drawn) [Compound 12d, 4-[(10S)-Dihydroartemisinin-10-oxycarbonyl]benzaldehyde N^4-(2,5-dimethylphenyl)semicarbazone], the Inhibition rate stood at 76.61% and the pIC50 was 5.53.

For `CCOc1ccc(NC(=O)NN=Cc2ccc(C(=O)O[C@@H]3OC4OC5(C)CCC6C(C)CCC(C3C)C46OO5)cc2)cc1` (stereo partly drawn) [Compound 12c, 4-[(10S)-Dihydroartemisinin-10-oxycarbonyl]benzaldehyde N^4-(4-ethoxyphenyl)semicarbazone], the Inhibition rate was 75.89% and the pIC50 was 6.54.

Turning to `Cc1cc(C)cc(NC(=O)NN=Cc2ccc(O[C@H]3O[C@@H]4O[C@@]5(C)CC[C@H]6[C@H](C)CC[C@@H]([C@H]3C)[C@@]46OO5)cc2)c1` [Compound 10k, 4-[(10S)-Dihydroartemisinin-10-oxy]benzaldehyde N^4-(3,5-dimethylphenyl)semicarbazone], the Inhibition rate turned out to be 87.88% and the pIC50 was 5.99.

Turning to `CCOc1ccc(NC(=S)NN=Cc2ccc(O[C@H]3OC4OC5(C)CCC6C(C)CCC(C3C)C46OO5)cc2)cc1` (stereo partly drawn) [Compound 10c, 4-[(10S)-Dihydroartemisinin-10-oxy]benzaldehyde N^4-(4-ethoxyphenyl)thiosemicarbazone], the Inhibition rate is on record as 87.42% and the pIC50 was 6.28.

Regarding `CC1CCC2C(C)[C@H](OC(=O)c3ccc(C=NNC(=O)Nc4ccc(F)cc4)cc3)OC3OC4(C)CCC1C32OO4` (stereo partly drawn) [Compound 12b, 4-[(10S)-Dihydroartemisinin-10-oxycarbonyl]benzaldehyde N^4-(4-fluorophenyl)semicarbazone], the Inhibition rate amounted to 69.25% and the pIC50 is 6.19.

Turning to `CCOc1ccc(NC(=O)NN=Cc2ccc(O[C@H]3OC4OC5(C)CCC6C(C)CCC(C3C)C46OO5)cc2)cc1` (stereo partly drawn) [Compound 10i, 4-[(10S)-Dihydroartemisinin-10-oxy]benzaldehyde N^4-(4-ethoxyphenyl)semicarbazone], the Inhibition rate is listed as 72.70% and the negative logarithm of the IC50 (pIC50) was 6.15.

With `Cc1cc(C)cc(NC(=O)NN=Cc2ccc(C(=O)O[C@@H]3O[C@@H]4O[C@@]5(C)CC[C@H]6[C@H](C)CC[C@@H]([C@H]3C)[C@@]46OO5)cc2)c1` [Compound 12e, 4-[(10S)-Dihydroartemisinin-10-oxycarbonyl]benzaldehyde N^4-(3,5-dimethylphenyl)semicarbazone], the Inhibition rate was determined as 71.62% and the pIC50 is 6.24.

Consider `Cc1c(Cl)cccc1NC(=S)NN=Cc1ccc(O[C@H]2OC3OC4(C)CCC5C(C)CCC(C2C)C35OO4)cc1` (stereo partly drawn) [Compound 10f, 4-[(10S)-Dihydroartemisinin-10-oxy]benzaldehyde N^4-(3-chloro-2-methylphenyl)thiosemicarbazone], for which the Inhibition rate was 75.62% and the pIC50 is 6.01.

Turning to `Cc1cc(C)cc(NC(=S)NN=Cc2ccc(O[C@H]3O[C@@H]4O[C@@]5(C)CC[C@H]6[C@H](C)CC[C@@H]([C@H]3C)[C@@]46OO5)cc2)c1` [Compound 10e, 4-[(10S)-Dihydroartemisinin-10-oxy]benzaldehyde N^4-(3,5-dimethylphenyl)thiosemicarbazone], the Inhibition rate was found to be 74.06% and the pIC50 is 5.87.

In the case of `Cc1c(Cl)cccc1NC(=O)NN=Cc1ccc(O[C@H]2OC3OC4(C)CCC5C(C)CCC(C2C)C35OO4)cc1` (stereo partly drawn) [Compound 10l, 4-[(10S)-Dihydroartemisinin-10-oxy]benzaldehyde N^4-(3-chloro-2-methylphenyl)semicarbazone], the Inhibition rate worked out at 81.82% and the pIC50 is 5.60.

In the case of `Cc1ccc(C)c(NC(=S)NN=Cc2ccc(O[C@H]3OC4OC5(C)CCC6C(C)CCC(C3C)C46OO5)cc2)c1` (stereo partly drawn) [Compound 10d, 4-[(10S)-Dihydroartemisinin-10-oxy]benzaldehyde N^4-(2,5-dimethylphenyl)thiosemicarbazone], the Inhibition rate was determined as 75.28% and the pIC50 is 6.26.

Regarding `Cc1ccc(C)c(NC(=O)NN=Cc2ccc(O[C@H]3OC4OC5(C)CCC6C(C)CCC(C3C)C46OO5)cc2)c1` (stereo partly drawn) [Compound 10j, 4-[(10S)-Dihydroartemisinin-10-oxy]benzaldehyde N^4-(2,5-dimethylphenyl)semicarbazone], the Inhibition rate came out at 59.01% and the pIC50 was 5.64.
